Test results published in patent US20050070437A1, “Herbicide combinations comprising specific sulfonamides” (Bayer CropScience GmbH, priority 2003, published 2005).

Columns and labels:
[1] = system: Veronica hederifolia; assay: Herbicidal action (field trials), visual scoring of harmful plant; type: in vivo; conditions: field trial, natural outdoor conditions; scored visually about 4 weeks after application vs untreated plots; mean of 2-4 plots; application rate g of active substance/hectare: A 5, B 25, C 50 (A + B 5 + 25; A + B + C 5 + 25 + 50)
Procedure: (§1) The seeds or rhizome pieces of the harmful plants and the useful plants were laid out or were present in the soil, and they were grown under natural outdoor conditions. Treatment with the active compounds or active compound combinations was carried out […] before and/or after the emergence of the plants, generally at the 2- to 4-leaf stage, in various dosages using a water application rate of 100 to 400 l/ha (converted).
(§2) After the application (about 4 weeks after the application), the effectiveness of the active compounds or active compound combinations was scored visually by comparing the treated plots to untreated control plots. During scoring, damage and development of all above-ground parts of plants was assessed. Scoring was carried out using a percentage scale (100% effect=all plants have died; 50% effect=50% of the plants and the green parts of the plants have died; 0% effect=no effect observed=like control plot). In each case, the mean score of 2-4 plots was calculated.
(§3) The results are shown in the table below; the effect of the individual application of active compounds (A+B) and C being stated in brackets.

[2] = system: Triticum aestivum; type: in vivo; conditions: field trial, natural outdoor conditions; scored visually about 4 weeks after application vs untreated plots; mean of 2-4 plots; application rate g of active substance/hectare: A 5, B 25, C 50 (A + B 5 + 25; A + B + C 5 + 25 + 50)
Procedure: as §1, §2, §3

SMILES	Veronica hederifolia % effect [1]	Triticum aestivum % damage [2]
COC(=O)c1ccc(I)cc1S(=O)(=O)[N-]C(=O)Nc1nc(C)nc(OC)n1.[Na+] [iodosulfuron-methyl-sodium]	15%	1%
CCCOc1nn(C(=O)[N-]S(=O)(=O)c2ccccc2C(=O)OC)c(=O)n1C.[Na+] [propoxycarbazone-sodium]	28%	2%
O=C(Nc1ccc(F)cc1F)c1cccnc1Oc1cccc(C(F)(F)F)c1 [diflufenican, 2′,4′-difluoro-2-(α,α,α-trifluoro-m-tolyloxy)nicotinanilide]	40%	0%
